{"source": "paper PMC6384891", "about": "“An automated microliter-scale high-throughput screening system (MSHTS) for real-time monitoring of protein aggregation using quantum-dot nanoprobes” (Scientific Reports, 2019)", "origin": "cited, not measured here", "system": "Aβ", "design": "method as in PMID 15511626", "settings": "cited from earlier work", "data": [{"substance": "Tannic acid", "values": [{"measurement": "inhibition of Aβ aggregation (in words)", "result": "dose-dependently inhibited"}]}]}
